Results taken from patent publication US10624947B2, “Bactericidal peptides and uses thereof” (INDIANA UNIVERSITY RESEARCH AND TECHNOLOGY CORPORATION, priority 2016, dated 2020).
≈ marks a conversion by molar mass, not a printed value. Read-outs that look alike come from different tables or passages of the source. Ends that are not written are not given here.

Legend:
Cultured human cells = assay: MTT cytotoxicity assay; assay type: cell-based
[1] = test system: human red blood cells (hRBCs); assay: Hemolytic activity; assay type: cell-based
Protocol: The amount of hemoglobin released was measured by the absorbance at 435 nm after a 60-minute incubation with the antimicrobial peptide. The percentage of hRBC lysis was normalized to the amount hemoglobin released by the suspension of the hRBCs in deionized water. The background amount of hRBC lysis was determined by adding phosphate buffered saline (PBS) at the same volume as 8 μM of the peptide to the hRBC for 1 h.
The hemolytic activities of peptides were determined using human red blood cells (hRBCs) (Innovative Research, Inc., cat. # IPLA-WB3-18103). The hRBCs were washed three times with PBS and then resuspended in PBS. The hRBCs solution was mixed with serial dilutions of the peptides in PBS buffer. The reaction mixtures were incubated for 45 min at 37° C. After centrifugation at 94×g for 10 min, the intact hRBCs were pelleted and the hemoglobin released from hRBCs was monitored by measuring the absorbance of the supernatant at 415 nm. The background level of absorbance was measured in sampled incubated with only PBS buffer. 100% hemolysis was determined in sampled incubated with water. The percentage of hemolysis was calculated according to the following equation. Percentage of hemolysis=[(Asample−Ablank)/Awater]*100%
Mammalian cells are thought to be less susceptible to cathelicidin peptides in part because the composition of their membrane will be less likely to interact with the peptides. To address this directly, human red blood cells (hRBCs) were tested for lysis after a 45-minute incubation with the peptides. The total lysis of hRBCs was determined by adding water to the cells. The amount of lysis during handling was determined by the addition of phosphate buffered saline at the same volume as that of the peptides.

Klebsiella pneumoniae [2] = details: for MIC: Table 5
Protocol: (§1) Antimicrobial activity was determined using the broth microdilution method based on the general recommendation of the Clinical and Laboratory Standards Institute. Bacteria were grown in Mueller-Hinton broth at 37° C. until OD625 reached 0.06, and then bacteria were further diluted into 1:20 for later use. […] 10 microliter (μL) of diluted bacteria was mixed with 90 μL of peptides at varying concentrations followed by incubation at 37° C. for 16-18 hours. The MIC is the lowest peptide concentration at which visible growth was inhibited. The MIC value was determined at least twice in independent experiments and typically in 3-4 assays.

Klebsiella pneumoniae [3] = assay: microbe, parasite or virus in culture
Protocol: as §1

Pseudomonas aeruginosa = assay type: cell-based
Protocol: as §1

[4] = Table 8, clinical isolate 88 (NDM1+)
[5] = Table 8, clinical isolate 262 (NDM1+)
[6] = Table 11, clinical isolate 88 (NDM1+)
[7] = Table 11, clinical isolate 262 (NDM1+)
[8] = Table 11, clinical isolate 110113

Protocol for Enterobacter cloacae: as §1
Protocol for Escherichia coli: as §1
Protocol for Serratia marcescens: as §1

## GRFKRLRKKFKKLFKKLSPVIPLLHLG [BMAP-27A]
Escherichia coli
  Minimal inhibitory concentration: 8 µg/mL
Escherichia coli; E. coli ATCC 25922
  Minimal inhibitory concentration: 2 µg/mL
Escherichia coli; E. coli ATCC 35218
  Minimal inhibitory concentration: 2 µg/mL
Escherichia coli; E. coli IU0342
  Minimal inhibitory concentration: 2 µg/mL
Cultured human cells
  Cytotoxicity, MTT assay: no increased cytotoxicity compared to the controls
[1]
  RBC lysis: decreased RBC lysis compared to the control H2O

## Colistin sulfate [reference compound]
Escherichia coli; Table 5, Escherichia coli ATCC25922, antibiotic resistance none
  MIC: 1 µM
Klebsiella pneumoniae [2]; Klebsiella pneumonia 27, Carbapenem resistant
  MIC: >32 µM
Klebsiella pneumoniae [2]; Klebsiella pneumonia 49, Carbapenem resistant
  MIC: 4 µM
Klebsiella pneumoniae [2]; Klebsiella pneumonia 83, Carbapenem resistant
  MIC: 2 µM
Klebsiella pneumoniae [2]; Klebsiella pneumonia 84, Carbapenem resistant
  MIC: 2 µM
Klebsiella pneumoniae [2]; Klebsiella pneumonia 88, Carbapenem resistant (NDM1+)
  MIC: 16 µM
Klebsiella pneumoniae [2]; Klebsiella pneumonia 262, Carbapenem resistant (NDM1+)
  MIC: 16 µM

## GRAKRLRKKLKKLAKKLSPVIPLLHLG [BMAP-27C]
Escherichia coli
  Minimal inhibitory concentration: 32 µg/mL
Escherichia coli; E. coli ATCC 35218
  Minimal inhibitory concentration: 4 µg/mL
Cultured human cells
  Cytotoxicity, MTT assay: no increased cytotoxicity compared to the controls
[1]
  RBC lysis: decreased RBC lysis compared to the control H2O

## C[C@@H](O)[C@H]1C(=O)N2C(C(=O)O)=C(SCCN=CN)C[C@H]12 [Imipenem]
Klebsiella pneumoniae [3]; [4]
  MIC: 16 µg/mL (≈ 53.4 µM)
Klebsiella pneumoniae [3]; Table 8, clinical isolate 92
  MIC: > 64 µg/mL
Klebsiella pneumoniae [3]; Table 8, clinical isolate 109
  MIC: 16 µg/mL (≈ 53.4 µM)
Klebsiella pneumoniae [3]; Table 8, clinical isolate 113
  MIC: 16 µg/mL (≈ 53.4 µM)
Klebsiella pneumoniae [3]; Table 8, clinical isolate 116
  MIC: 8 µg/mL (≈ 26.7 µM)
Klebsiella pneumoniae [3]; Table 8, clinical isolate 118
  MIC: 32 µg/mL (≈ 107 µM)
Klebsiella pneumoniae [3]; Table 8, clinical isolate 136
  MIC: 8 µg/mL (≈ 26.7 µM)
Klebsiella pneumoniae [3]; Table 8, clinical isolate 256
  MIC: ≥ 16 µg/mL
Klebsiella pneumoniae [3]; [5]
  MIC: > 16 µg/mL
Klebsiella pneumoniae [3]; Table 8, clinical isolate 265
  MIC: 48 µg/mL (≈ 160 µM)
Klebsiella pneumoniae [3]; Table 8, clinical isolate 280
  MIC: ≥ 16 µg/mL
Klebsiella pneumoniae [3]; Table 8, clinical isolate 281
  MIC: 4 µg/mL (≈ 13.4 µM)
Klebsiella pneumoniae [3]; Table 8, clinical isolate 284
  MIC: 8 µg/mL (≈ 26.7 µM)
Klebsiella pneumoniae [3]; Table 8, clinical isolate 286
  MIC: ≥ 16 µg/mL
Klebsiella pneumoniae [3]; Table 8, clinical isolate 330
  MIC: 4 µg/mL (≈ 13.4 µM)
Klebsiella pneumoniae [3]; Table 8, clinical isolate 361
  MIC: > 16 µg/mL
Klebsiella pneumoniae [3]; [6]
  MIC: 16 µg/mL (≈ 53.4 µM)
Klebsiella pneumoniae [3]; Table 11, clinical isolate 92
  MIC: > 64 µg/mL
Klebsiella pneumoniae [3]; Table 11, clinical isolate 116
  MIC: 8 µg/mL (≈ 26.7 µM)
Klebsiella pneumoniae [3]; Table 11, clinical isolate 118
  MIC: 32 µg/mL (≈ 107 µM)
Klebsiella pneumoniae [3]; Table 11, clinical isolate 136
  MIC: 8 µg/mL (≈ 26.7 µM)
Klebsiella pneumoniae [3]; Table 11, clinical isolate 256
  MIC: ≥ 16 µg/mL
Klebsiella pneumoniae [3]; [7]
  MIC: > 16 µg/mL
Klebsiella pneumoniae [3]; Table 11, clinical isolate 265
  MIC: 48 µg/mL (≈ 160 µM)
Klebsiella pneumoniae [3]; Table 11, clinical isolate 280
  MIC: ≥ 16 µg/mL
Klebsiella pneumoniae [3]; Table 11, clinical isolate 281
  MIC: 4 µg/mL (≈ 13.4 µM)
Klebsiella pneumoniae [3]; Table 11, clinical isolate 284
  MIC: 8 µg/mL (≈ 26.7 µM)
Klebsiella pneumoniae [3]; Table 11, clinical isolate 286
  MIC: ≥ 16 µg/mL
Klebsiella pneumoniae [3]; Table 11, clinical isolate 330
  MIC: 4 µg/mL (≈ 13.4 µM)
Klebsiella pneumoniae [3]; Table 11, clinical isolate 361
  MIC: > 16 µg/mL
Klebsiella pneumoniae [3]; Table 11, clinical isolate 10916
  MIC: > 16 µg/mL
Klebsiella pneumoniae [3]; [8]
  MIC: 16 µg/mL (≈ 53.4 µM)

## GRFKRFRKKFKKLFKKLSPVIPLLHLG [BMAP-27, reference compound]
Escherichia coli
  Minimal inhibitory concentration: 8 µg/mL
Cultured human cells
  Cytotoxicity, MTT assay: no increased cytotoxicity compared to the controls
[1]
  RBC lysis: decreased RBC lysis compared to the control H2O

## C[C@@H](O)[C@H]1C(=O)N2C(C(=O)O)=C(S[C@@H]3CN[C@H](C(=O)N(C)C)C3)[C@H](C)[C@H]12 [Meropenem]
Klebsiella pneumoniae [3]; [4]
  MIC: > 16 µg/mL
Klebsiella pneumoniae [3]; Table 8, clinical isolate 92
  MIC: > 16 µg/mL
Klebsiella pneumoniae [3]; Table 8, clinical isolate 109
  MIC: > 16 µg/mL
Klebsiella pneumoniae [3]; Table 8, clinical isolate 113
  MIC: > 16 µg/mL
Klebsiella pneumoniae [3]; Table 8, clinical isolate 116
  MIC: > 16 µg/mL
Klebsiella pneumoniae [3]; Table 8, clinical isolate 118
  MIC: > 16 µg/mL
Klebsiella pneumoniae [3]; Table 8, clinical isolate 136
  MIC: > 16 µg/mL
Klebsiella pneumoniae [3]; Table 8, clinical isolate 170
  MIC: > 32 µg/mL
Klebsiella pneumoniae [3]; Table 8, clinical isolate 256
  MIC: 4 µg/mL (≈ 10.4 µM)
Klebsiella pneumoniae [3]; [5]
  MIC: > 6 µg/mL
Klebsiella pneumoniae [3]; Table 8, clinical isolate 265
  MIC: > 64 µg/mL
Klebsiella pneumoniae [3]; Table 8, clinical isolate 280
  MIC: > 64 µg/mL
Klebsiella pneumoniae [3]; Table 8, clinical isolate 281
  MIC: > 64 µg/mL
Klebsiella pneumoniae [3]; Table 8, clinical isolate 284
  MIC: > 64 µg/mL
Klebsiella pneumoniae [3]; Table 8, clinical isolate 286
  MIC: > 64 µg/mL
Klebsiella pneumoniae [3]; Table 8, clinical isolate 328
  MIC: > 16 µg/mL
Klebsiella pneumoniae [3]; Table 8, clinical isolate 330
  MIC: > 16 µg/mL
Klebsiella pneumoniae [3]; Table 8, clinical isolate 361
  MIC: > 16 µg/mL
Klebsiella pneumoniae [3]; Table 8, clinical isolate 365
  MIC: > 16 µg/mL
Klebsiella pneumoniae [3]; Table 8, clinical isolate 399
  MIC: > 16 µg/mL
Klebsiella pneumoniae [3]; [6]
  MIC: > 16 µg/mL
Klebsiella pneumoniae [3]; Table 11, clinical isolate 92
  MIC: > 16 µg/mL
Klebsiella pneumoniae [3]; Table 11, clinical isolate 116
  MIC: > 16 µg/mL
Klebsiella pneumoniae [3]; Table 11, clinical isolate 118
  MIC: > 16 µg/mL
Klebsiella pneumoniae [3]; Table 11, clinical isolate 136
  MIC: > 16 µg/mL
Klebsiella pneumoniae [3]; Table 11, clinical isolate 170
  MIC: > 32 µg/mL
Klebsiella pneumoniae [3]; Table 11, clinical isolate 256
  MIC: 4 µg/mL (≈ 10.4 µM)
Klebsiella pneumoniae [3]; [7]
  MIC: ≥ 64 µg/mL
Klebsiella pneumoniae [3]; Table 11, clinical isolate 265
  MIC: ≥ 64 µg/mL
Klebsiella pneumoniae [3]; Table 11, clinical isolate 280
  MIC: ≥ 64 µg/mL
Klebsiella pneumoniae [3]; Table 11, clinical isolate 281
  MIC: > 64 µg/mL
Klebsiella pneumoniae [3]; Table 11, clinical isolate 284
  MIC: ≥ 64 µg/mL
Klebsiella pneumoniae [3]; Table 11, clinical isolate 286
  MIC: ≥ 64 µg/mL
Klebsiella pneumoniae [3]; Table 11, clinical isolate 328
  MIC: ≥ 16 µg/mL
Klebsiella pneumoniae [3]; Table 11, clinical isolate 330
  MIC: ≥ 16 µg/mL
Klebsiella pneumoniae [3]; Table 11, clinical isolate 361
  MIC: ≥ 16 µg/mL
Klebsiella pneumoniae [3]; Table 11, clinical isolate 365
  MIC: ≥ 16 µg/mL
Klebsiella pneumoniae [3]; Table 11, clinical isolate 399
  MIC: ≥ 16 µg/mL
Klebsiella pneumoniae [3]; [8]
  MIC: > 16 µg/mL

## CC[C@H](C)[C@H](NC(=O)[C@H](CCCCN)NC(=O)[C@H](CCC(=O)O)NC(=O)[C@H](CCCCN)NC(=O)[C@H](CO)NC(=O)[C@H](CCCCN)NC(=O)[C@H](CCCNC(=N)N)NC(=O)[C@H](Cc1ccccc1)NC(=O)[C@H](Cc1ccccc1)NC(=O)[C@H](CC(=O)O)NC(=O)CNC(=O)[C@H](CC(C)C)NC(=O)[C@@H](N)CC(C)C)C(=O)NCC(=O)N[C@@H](CCCCN)C(=O)N[C@@H](CCC(=O)O)C(=O)N[C@@H](Cc1ccccc1)C(=O)N[C@@H](CCCCN)C(=O)N[C@@H](CCCNC(=N)N)C(=O)N[C@H](C(=O)N[C@H](C(=O)N[C@@H](CCC(N)=O)C(=O)N[C@@H](CCCNC(=N)N)C(=O)N[C@H](C(=O)N[C@@H](CCCCN)C(=O)N[C@@H](CC(=O)O)C(=O)N[C@@H](Cc1ccccc1)C(=O)N[C@@H](CC(C)C)C(=O)N[C@@H](CCCNC(=N)N)C(=O)N[C@@H](CC(N)=O)C(=O)N[C@@H](CC(C)C)C(=O)N[C@H](C(=O)N1CCC[C@H]1C(=O)N[C@@H](CCCNC(=N)N)C(=O)N[C@H](C(=O)N[C@@H](CCC(=O)O)C(=O)N[C@@H](CO)C(=O)O)[C@@H](C)O)C(C)C)[C@@H](C)CC)C(C)C)[C@@H](C)CC [LL-37, reference compound]
Enterobacter cloacae; E. cloacae 4092
  Minimal inhibitory concentration: >32 µg/mL
Enterobacter cloacae; Table 10, Enterobacter cloacae OC4080
  Minimal inhibitory concentration: 32 µM
Enterobacter cloacae; Table 10, Enterobacter cloacae OC4092
  Minimal inhibitory concentration: >32 µM
Escherichia coli; E. coli 4075
  Minimal inhibitory concentration: >32 µg/mL
Escherichia coli; E. coli J53 AzideR
  Minimal inhibitory concentration: >32 µg/mL
Escherichia coli; E. coli MC4100
  Minimal inhibitory concentration: >32 µg/mL
Escherichia coli; Table 10, Escherichia coli ATCC 25922
  Minimal inhibitory concentration: 32 µM
Escherichia coli; Table 10, Escherichia coli ATCC 35218
  Minimal inhibitory concentration: 32 µM
Escherichia coli; Table 10, Escherichia coli IU342
  Minimal inhibitory concentration: 32 µM
Escherichia coli; Table 10, Escherichia coli J53 AzideR
  Minimal inhibitory concentration: >32 µM
Escherichia coli; Table 10, Escherichia coli MC4100a
  Minimal inhibitory concentration: >32 µM
Escherichia coli; Table 10, Escherichia coli OC4075
  Minimal inhibitory concentration: >32 µM
Escherichia coli; Table 10, Escherichia coli UT189
  Minimal inhibitory concentration: >32 µM
Cultured human cells; cultured human cells, compared to controls
  Cytotoxicity, MTT assay: no increased cytotoxicity compared to the controls
[1]; 2 micromolar, 45-minute incubation (FIG. 17)
  Hemoglobin release from hRBCs: a low abundance of hemoglobin outside of the cells was detected
[1]; 2 to 8 μM (FIG. 15)
  hRBC lysis: lysed hRBC when present at 4 or 8 μM
[1]; LL-37 beyond 10 micromolar, B22a up to 60 micromolar (FIG. 18)
  hRBC lysis with increasing concentration: significantly higher hRBC lysis
Pseudomonas aeruginosa; P. aeruginosa ATCC 27853
  Minimal inhibitory concentration: >32 µg/mL
Pseudomonas aeruginosa; Table 10, Pseudomonas aeruginosa ATCC 27853
  Minimal inhibitory concentration: >32 µM
Pseudomonas aeruginosa; Table 10, Pseudomonas aeruginosa OC4083
  Minimal inhibitory concentration: >32 µM
Pseudomonas aeruginosa; Table 10, Pseudomonas aeruginosa PAO1
  Minimal inhibitory concentration: 32 µM
Pseudomonas aeruginosa; Table 10, Pseudomonas aeruginosa PAO1 oprD
  Minimal inhibitory concentration: 32 µM
Serratia marcescens; S. marcescens 4101
  Minimal inhibitory concentration: >32 µg/mL
Serratia marcescens; S. marcescens 4104
  Minimal inhibitory concentration: >32 µg/mL
Serratia marcescens; S. marcescens 7553
  Minimal inhibitory concentration: >32 µg/mL
Serratia marcescens; Table 10, Serratia marcescens 4075A
  Minimal inhibitory concentration: >32 µM
Serratia marcescens; Table 10, Serratia marcescens 4101
  Minimal inhibitory concentration: >32 µM
Serratia marcescens; Table 10, Serratia marcescens 4104
  Minimal inhibitory concentration: >32 µM
Klebsiella pneumoniae [2]; K. pneumoniae 4110
  Minimal inhibitory concentration: >32 µg/mL
Klebsiella pneumoniae [2]; K. pneumoniae ATCC 700603
  Minimal inhibitory concentration: >32 µg/mL
Klebsiella pneumoniae [2]; K. pneumoniae C2
  Minimal inhibitory concentration: >32 µg/mL
Klebsiella pneumoniae [2]; K. pneumoniae OC8893
  Minimal inhibitory concentration: >32 µg/mL
Klebsiella pneumoniae [2]; Table 10, Klebsiella pneumonia ATCC 700603
  Minimal inhibitory concentration: >32 µM
Klebsiella pneumoniae [2]; Table 10, Klebsiella pneumonia C2
  Minimal inhibitory concentration: >32 µM
Klebsiella pneumoniae [2]; Table 10, Klebsiella pneumonia OC4110
  Minimal inhibitory concentration: >32 µM
Klebsiella pneumoniae [2]; Table 10, Klebsiella pneumonia OC8893
  Minimal inhibitory concentration: >32 µM
